Where “and” joins values, the source holds several entries; their conditions need not be identical. Equal entries are not always repeated.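 Step 1: Grow cells in 96-well plates. Step 2: Expose to compound for 48 hours at 5 concentrations. Step 3: Interpolate endpoints linearly; if unreached, use highest concentration. Abbreviation: GI50, concentration required for 50% inhibition of growth. The concentration for full growth arrest is given as TGI.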
Experiments:
Experiment in all cases: NCI anticancer screen, dose series, 48 h
[1] = system: HCC-2998 colon
[2] = system: NCI-H522 lung
[3] = system: MDA-MB-231 breast
[4] = system: RPMI-8226 leukemia
[5] = system: UO-31 renal
[6] = system: UACC-257 melanoma
[7] = system: EKVX NSCLC
[8] = system: U251 CNS
[9] = system: COLO 205 colon
[10] = system: SK-MEL-28 melanoma

Structure (SMILES)	GI50 [1]	TGI [1]	GI50 [2]	TGI [2]	GI50 [3]	TGI [3]	GI50 [4]	TGI [4]	GI50 [5]	TGI [5]	GI50 [6]	TGI [6]	GI50 [7]	TGI [7]	GI50 [8]	TGI [8]	GI50 [9]	TGI [9]	GI50 [10]	TGI [10]
COC1=CC(c2ccc[nH]2)=N/C1=C\c1[nH]c(C)c(C(=O)Oc2ccccc2)c1C	0.243 µM	1.42 µM	0.227 µM	0.979 µM	0.0795 µM	0.457 µM	0.284 µM	2.02 µM	0.15 µM	0.35 µM	0.545 µM	2.41 µM	0.164 µM	2.97 µM	0.148 µM	1.6 µM	0.345 µM	1.43 µM	0.595 µM	1.99 µM
O=C(NCCCl)NCCN1c2nc3ccccc3cc2Sc2cc3ccccc3nc21	1.68 µM	5.09 µM	4.23 µM	> 53.3 µM	2.71 µM	17.8 µM	0.245 µM	1.64 µM	2.64 µM	> 52.1 µM	1.37 µM	6.55 µM	3.45 µM	> 44.1 µM	1.93 µM	12.3 µM	1.32 µM	2.66 µM	2.8 µM	8.53 µM
COc1ccc2nc3cc(Cl)ccc3c(NCCNCC(O)CO)c2c1 (stereo unspecified)	1.59 µM	6.55 µM	0.984 µM	3.93 µM	1.25 µM	5.83 µM	2.3 µM	6.38 µM	3.62 µM	17.4 µM	3.94 µM	12.9 µM	3.33 µM	13.1 µM	1.55 µM	10.8 µM	0.622 µM	2.41 µM	2.19 µM	5.43 µM
CC1NC(C(=O)O)Cc2cc(O)c(O)cc21 (stereo unspecified)	–	> 100 µM	–	> 100 µM	–	> 100 µM	–	> 100 µM	–	> 100 µM	–	> 100 µM	–	> 100 µM	–	> 100 µM	–	> 100 µM	–	> 100 µM
O=C(/C=C/c1ccco1)Nc1ncc(Cc2cccc(C(F)(F)F)c2)s1	0.179 µM	2.21 µM	0.0321 µM	0.328 µM	0.153 µM	4.8 µM	0.291 µM	10.9 µM	0.166 µM	5.13 µM	3.63 µM	> 100 µM	0.117 µM	> 55.8 µM	0.0532 µM	2.11 µM	0.0433 µM	0.166 µM	1.1 µM	> 50.2 µM
O=C(CN1CCN(CCN2C(=O)c3cccc4cccc(c34)C2=O)CC1)Nc1ccc2ncsc2c1	5.84 µM	> 100 µM	3.96 µM	18 µM	> 100 µM	> 100 µM	9.39 µM	38.1 µM	6.21 µM	30.8 µM	5.65 µM	23.7 µM	9.79 µM	39.2 µM	4.39 µM	17.2 µM	5.44 µM	54.6 µM	11 µM	23.8 µM
C[C@@H]1CC[C@H]2[C@@H](C)C(OC/C=C/COC3O[C@@H]4O[C@@]5(C)CC[C@H]6[C@H](C)CC[C@@H]([C@H]3C)[C@@]46OO5)O[C@@H]3O[C@@]4(C)CC[C@@H]1[C@]32OO4 (stereo partly specified)	0.0376 µM	12.1 µM	0.0898 µM	> 100 µM	< 0.0269 µM	1.11 µM	< 0.01 µM	5.77 µM	0.152 µM	> 92.9 µM	0.0401 µM	48 µM	16 µM	> 100 µM	< 0.01 µM	> 20.9 µM	< 0.01 µM	0.228 µM	1.32 µM	> 100 µM
NC(CP(=O)(O)O)C(=O)O (stereo unspecified)	–	> 100 µM	–	> 100 µM	–	> 100 µM	–	> 100 µM	–	> 100 µM	–	> 100 µM	–	> 100 µM	–	> 100 µM	–	> 100 µM	–	> 100 µM
CCOC(=O)C1=C(C)NC(C)=C(C(=O)OCCNC(=O)c2ccc(N=[N+]=[N-])cc2)C1c1ccccc1C(F)(F)F (stereo unspecified)	–	21.5 µM	–	19.3 µM	–	21.5 µM	–	18.9 µM	–	21.5 µM	–	21.5 µM	–	21.5 µM	–	21.5 µM	–	11 µM	–	21.5 µM
COc1ccc(/C(=C/c2ccc3ccccc3c2)c2nn[nH]n2)cc1OC	5.2 µM	82.9 µM	1.14 µM	35.8 µM	12.5 µM	> 100 µM	4.02 µM	> 100 µM	5.59 µM	> 100 µM	56.6 µM	> 100 µM	18.2 µM	> 100 µM	4.46 µM	> 100 µM	2.27 µM	6.56 µM	8.07 µM	> 100 µM
Nc1nc(=S)c2ncn(C3OC(CO)C(O)C3O)c2[nH]1 (stereo unspecified)	0.7 µM	5 µM	1.8 µM	> 100 µM	1.39 µM	> 100 µM	0.322 µM	2.29 µM	0.77 µM	> 100 µM	31.8 µM	> 100 µM	2.02 µM	> 100 µM	6.5 µM	> 100 µM	2.18 µM	7.82 µM	13.7 µM	> 100 µM
O=C(Nc1ccc(Oc2ccc(NC(=O)Nc3ccccc3Cl)cc2)cc1)Nc1ccccc1Cl	8.47 µM	> 51.7 µM	7.91 µM	42.6 µM	9.4 µM	29.6 µM	1.19 µM	15.7 µM	34.8 µM	> 95.8 µM	–	> 28.2 µM	16.4 µM	> 100 µM	1.71 µM	20.5 µM	15.7 µM	> 100 µM	3.54 µM	> 100 µM
CN(C)c1ccc(/C=C(\C#N)c2ccccc2)cc1	1.31 µM and 3.24 µM and 1.62 µM	31.7 µM and 57.4 µM and > 100 µM	0.369 µM and 0.43 µM and 0.681 µM	–	1.66 µM and 1.97 µM	78.4 µM and 76.7 µM	0.288 µM and 0.648 µM	–	0.587 µM and 0.698 µM and 1.74 µM	> 100 µM	44.7 µM and 57.4 µM	> 100 µM	0.499 µM and 1.43 µM and 1.78 µM	> 100 µM	0.378 µM and 0.499 µM and 0.538 µM	55.4 µM and > 100 µM and 91.5 µM	0.384 µM and 0.42 µM and 0.353 µM	2.32 µM and 5.35 µM and 2.76 µM	–	> 100 µM
COc1ccc(C2CC(c3ccccc3)=NN2C(=O)c2cc(OC)c(OC)c(OC)c2)cc1O (stereo unspecified)	0.724 µM	4.08 µM	0.335 µM	7.03 µM	0.902 µM	18.1 µM	0.259 µM	5.47 µM	0.751 µM	> 100 µM	22.1 µM	> 54.3 µM	3.04 µM	> 100 µM	0.383 µM	13.8 µM	2.96 µM	10.4 µM	0.597 µM	> 47.6 µM
[N-]=[N+]=NCCCn1c2c(c3ccc([N+](=O)[O-])cc3c1=O)C(=O)c1cc(I)ccc1-2	11.7 µM	59.3 µM	1.68 µM	12.4 µM	> 100 µM	> 100 µM	2.17 µM	59.6 µM	3.82 µM	45.6 µM	26.7 µM	> 100 µM	22 µM	> 100 µM	2.23 µM	30.6 µM	40.4 µM	> 100 µM	41.5 µM	> 100 µM
